# Results published in PMC10861881 (Proceedings of the National Academy of Sciences of the …, 2024).
# pIC50: −log10 of the molar value.
# What was measured:
# [1] = test system: p-ERK (Tyr202/204) in SNU-16 cells; experiment: SNU-16 cellular PD assay, p-ERK HTRF; assay type: cell-based; conditions: Homo sapiens, SNU-16, 2 h, read-out: SNU16 PD IC50
# ELogD = assay type: physicochemical; conditions: pH 7.4
# [2] = Thermodynamic solubility FaSSIF/SGF; assay type: physicochemical; conditions: thermodynamic from solid
# [3] = Plasma protein binding, mouse; assay type: in vitro ADME; conditions: pooled plasma
# [4] = Plasma protein binding, rat; assay type: in vitro ADME; conditions: Sprague-Dawley, pooled plasma
# [5] = Plasma protein binding, dog; assay type: in vitro ADME; conditions: beagle, pooled plasma
# [6] = Plasma protein binding, cynomolgus monkey; assay type: in vitro ADME; conditions: pooled plasma
# [7] = Plasma protein binding, human; assay type: in vitro ADME; conditions: pooled plasma
# [8] = Hepatocyte intrinsic clearance, mouse; assay type: in vitro ADME; conditions: hepatocytes
# [9] = Hepatocyte intrinsic clearance, rat; assay type: in vitro ADME; conditions: hepatocytes
# [10] = Hepatocyte intrinsic clearance, dog; assay type: in vitro ADME; conditions: hepatocytes
# [11] = Hepatocyte intrinsic clearance, cynomolgus monkey; assay type: in vitro ADME; conditions: hepatocytes
# [12] = Hepatocyte intrinsic clearance, human; assay type: in vitro ADME; conditions: hepatocytes
# PK study IV/PO, mouse = assay type: in vivo
# PK study IV/PO, rat = assay type: in vivo
# PK study IV/PO, dog = assay type: in vivo
# [13] = PK study IV/PO, cynomolgus monkey; assay type: in vivo
# pFGFR2 (Y653/654) = experiment: Tumor PD; assay type: in vivo, mouse; conditions: SNU-16 xenograft, BALB/c nude mice, oral 5 and 10 mg/kg twice daily groups, 2 h postdose
# [14] = Stability in plasma and blood; assay type: in vitro ADME; conditions: plasma of all species, 5 μM, 37 °C, 18 h
# MEK5 = conditions: test concentration 500 nmol/L; cited from earlier work
# MKNK2 = conditions: test concentration 500 nmol/L; cited from earlier work
# [15] = test system: FGFR2 fusion-positive cholangiocarcinoma; conditions: patients, across dose levels; cited from earlier work
# CACO2 permeability = conditions: human, Caco-2
smiles,measurement,setting,value
C=C(C)C(=O)Nc1ccc(-c2c(-c3ccc(Oc4nccc(C)n4)c(F)c3)c3c(N)ncnc3n2C)cc1 [Lirafugratinib],pIC50,[1],8.52
same,ELogD@7.4,ELogD,4.3/510
same,solubility,[2]; FaSSIF,49.3 µM
same,solubility,"[2]; SGF, simulated gastric fluid",540 µM
same,"fraction unbound at 18 h, 5 μM",[3],0.0082
same,"fraction unbound at 18 h, 5 μM",[4],0.016
same,"fraction unbound at 18 h, 5 μM",[5],0.023
same,"fraction unbound at 18 h, 5 μM",[6],0.002
same,"fraction unbound at 18 h, 5 μM",[7],0.0014
same,hepatocyte CLint,[8],29 µL/min/1e6 cells
same,hepatocyte CLint,[9],30 µL/min/1e6 cells
same,hepatocyte CLint,[10],19 µL/min/1e6 cells
same,hepatocyte CLint,[11],6.5 µL/min/1e6 cells
same,hepatocyte CLint,[12],< 1 µL/min/1e6 cells
same,Vd,"PK study IV/PO, mouse; BALB/c nude, plasma, iv",0.42 L/kg
same,clearance,"PK study IV/PO, mouse; BALB/c nude, plasma, iv",4.4 mL/min/kg
same,half-life,"PK study IV/PO, mouse; BALB/c nude, plasma, iv",66 min
same,bioavailability,"PK study IV/PO, mouse; BALB/c nude, plasma, po",58%
same,IV CLu mouse,"PK study IV/PO, mouse; IV, unbound",538 mL/min/kg
same,IV CLu rat,"PK study IV/PO, rat; IV, unbound","3,813 mL/min/kg"
same,Vd,"PK study IV/PO, rat; Sprague-Dawley, in vivo, iv",0.98 L/kg
same,half-life,"PK study IV/PO, rat; Sprague-Dawley, in vivo, iv",11.4 min
same,bioavailability,"PK study IV/PO, rat; Sprague-Dawley, in vivo, po",18%
same,IV CLu dog,"PK study IV/PO, dog; IV, unbound","1,200 mL/min/kg"
same,Vd,"PK study IV/PO, dog; beagle, plasma, iv",1.3 L/kg
same,clearance,"PK study IV/PO, dog; beagle, plasma, iv",28 mL/min/kg
same,half-life,"PK study IV/PO, dog; beagle, plasma, iv",33 min
same,bioavailability,"PK study IV/PO, dog; beagle, plasma, po",53%
same,IV CLu cynomolgus monkey,"[13]; IV, unbound","1,100 mL/min/kg"
same,Vd,"[13]; plasma, iv",0.26 L/kg
same,clearance,"[13]; plasma, iv",2.2 mL/min/kg
same,half-life,"[13]; plasma, iv",84 min
same,bioavailability,"[13]; plasma, po",47%
same,modulation of phosphorylated FGFR2 (pFGFR2) in tumor,pFGFR2 (Y653/654),complete suppression
same,stability in plasma under PPB assay conditions,[14],stable
same,inhibition of MEK5 in kinome panel,MEK5,92.4%
same,inhibition of MKNK2 in kinome panel,MKNK2,89%
same,adverse effects occurring with treatment,[15],minimal hyperphosphatemia and diarrhea
same,Papp A→B,CACO2 permeability,5.3 ×10⁻⁶ cm/s
same,Papp B→A,CACO2 permeability,6.8 ×10⁻⁶ cm/s
